# Assay results taken from EP4786467A1, “QUINOLINONE COMPOUND, PREPARATION METHOD THEREFOR AND USE THEREOF” (Vigonvita Life Sciences Co., Ltd., priority 2023, dated 2025).
# Tested on: Male C57 mice
# Assay: Forced Swim Test
# Type: in vivo
# Details: 10 mg/kg, intraperitoneally, 0.5h after administration; compared to the solvent control group; Figure 1
# Description: Drugs to be tested: The compounds of the present invention and the positive control compound (vortioxetine) were mixed with 5% DMSO, then mixed with 5% Solutol® HS 15, and then 90% physiological saline was added to prepare a solution of appropriate concentration. The solution was prepared immediately before use.
# Animal: Male C57 mice, approximately 22g. Animals were randomly divided into a blank control group and each test drug group, with 8 animals in each group. Mice in each group were intraperitoneally injected with either the solvent or the test drug.
# Experimental Procedure: Forced swimming test was performed on the mice 0.5h after drug administration. The water level in the forced swimming device was 45cm, and the water temperature was 25°C. The mice were placed in the experimental room for 1h to acclimatize before the experiment. Mice were placed in the device at the start of the experiment for 6 minutes, and the entire process was recorded by a camera. Data analysis only considered the immobility time of the mice during the last 4 minutes.
compound,measurement,value
Cc1ccc(Sc2ccccc2N2CCNCC2)c(C)c1 [vortioxetine],immobility time of mice,significantly reduced the immobility time
